Reference: patent publication US20080262082A1, “COMPOSITION CONTAINING S-(-)-TULIPALIN B OR ACETYLATED-S-(-)-TULIPALIN B” (BIO SPECTRUM, INC., priority 2007, published 2008)
Like-named read-outs stand apart in the source and are kept apart here.

Legend:
Format in all cases: cell-based
[1] = system: Shigella flexneri KCTC 2517; assay: MIC by broth dilution method; conditions: S. flexneri, 37° C., 24 hours
[2] = system: Propionibacterium acne ATCC 6919; assay: Agar diffusion antibacterial test (anaerobic); conditions: P. acne
[3] = system: 18 species of pathogenic bacteria (aerobic); assay: Agar diffusion antibacterial test, overall (aerobic); conditions: all kinds of test bacteria (aerobic), agar diffusion
[4] = system: Propionibacterium granulosum ATCC 25564; assay: MIC by broth dilution method; conditions: P. granulosum, 37° C., 24 hours
[5] = system: Pseudomonas aeruginosa KCTC 1637; assay: MIC by broth dilution method; conditions: P. aeruginosa, 37° C., 24 hours
[6] = system: Shigella sonnei KCTC 2518; assay: MIC by broth dilution method; conditions: S. sonnei, 37° C., 24 hours
[7] = system: Salmonella typhimurium KCTC 2514; assay: Agar diffusion antibacterial test (aerobic); conditions: S. typhimurium
[8] = system: Yersinia enterocolitica KCCM 41657; assay: MIC by broth dilution method; conditions: Y. enterocolitica, 37° C., 24 hours
[9] = system: Aeromonas salmonicida KCTC 12266; assay: MIC by broth dilution method; conditions: A. salmonicida, 37° C., 24 hours
[10] = system: Moraxella catarrhalis KCCM 40056; assay: Agar diffusion antibacterial test (aerobic); conditions: M. catarrhalis
[11] = system: Clostridium perfringens KCCM 12098; conditions: C. perfringens
[12] = system: Shigella sonnei KCTC 2518; assay: Agar diffusion antibacterial test (aerobic); conditions: S. sonnei
[13] = system: Streptococcus mutans KCTC 3065; assay: Agar diffusion antibacterial test (aerobic); conditions: S. mutans
[14] = system: Legionella pneumophila KCCM 41779; conditions: L. pneumophila; broth dilution, 37° C., 24 hours
[15] = system: Streptococcus mutans KCTC 3065; assay: MIC by broth dilution method; conditions: S. mutans, 37° C., 24 hours
[16] = system: Helicobacter pylori KCTC 5335; assay: Agar diffusion antibacterial test (anaerobic); conditions: H. pylori
[17] = system: Bordetella bronchiseptica KCCM 21998; assay: MIC by broth dilution method; conditions: B. bronchiseptica, 37° C., 24 hours
[18] = system: Bacteroides fragilis KCTC 3688; assay: Agar diffusion antibacterial test (anaerobic); conditions: B. fragilis
[19] = system: Bordetella bronchiseptica KCCM 21998; assay: Agar diffusion antibacterial test (aerobic); conditions: B. bronchiseptica
[20] = system: Corynebacterium glutamicum KCTC 1445; assay: Agar diffusion antibacterial test (anaerobic); conditions: C. glutamicum

SMILES: C=C1C(=O)OC[C@H]1O [S-(−)-tulipalin B, (4S)-4-hydroxy-3-methylene-oxolan-2-one]
- MIC [1]: 0.025%
- Inhibitory zone diameter ([2]; treatment concentration 0.03%): 11 mm
- Inhibitory zone diameter ([2]; treatment concentration 0.1%): 13 mm
- Inhibitory zone diameter ([2]; treatment concentration 0.3%): 14 mm
- Inhibitory zone diameter ([2]; treatment concentration 1.0%): 16 mm
- Antibacterial effects [3]: high antibacterial effects
- MIC [4]: 0.03%
- MIC [5]: 0.11%
- MIC [6]: 0.03%
- Inhibitory zone diameter ([7]; treatment concentration 0.03%): 11 mm
- Inhibitory zone diameter ([7]; treatment concentration 0.1%): 13 mm
- Inhibitory zone diameter ([7]; treatment concentration 0.3%): 17 mm
- Inhibitory zone diameter ([7]; treatment concentration 1.0%): 20 mm
- MIC [8]: 0.015%
- MIC [9]: 0.01%
- Inhibitory zone diameter ([10]; treatment concentration 0.03%): 11 mm
- Inhibitory zone diameter ([10]; treatment concentration 0.1%): 11 mm
- Inhibitory zone diameter ([10]; treatment concentration 0.3%): 15 mm
- Inhibitory zone diameter ([10]; treatment concentration 1.0%): 18 mm
- Inhibitory zone diameter ([11]; treatment concentration 0.1%): 11 mm
- Inhibitory zone diameter ([11]; treatment concentration 0.3%): 13 mm
- Inhibitory zone diameter ([11]; treatment concentration 1.0%): 14 mm
- Inhibitory zone diameter ([12]; treatment concentration 0.03%): 11 mm
- Inhibitory zone diameter ([12]; treatment concentration 0.1%): 12 mm
- Inhibitory zone diameter ([12]; treatment concentration 0.3%): 17 mm
- Inhibitory zone diameter ([12]; treatment concentration 1.0%): 19 mm
- Inhibitory zone diameter ([13]; treatment concentration 0.1%): 11 mm
- Inhibitory zone diameter ([13]; treatment concentration 0.3%): 13 mm
- Inhibitory zone diameter ([13]; treatment concentration 1.0%): 16 mm
- MIC [14]: 0.03%
- MIC [15]: 0.10%
- Inhibitory zone diameter ([16]; treatment concentration 0.01%): 10.5 mm
- Inhibitory zone diameter ([16]; treatment concentration 0.03%): 12 mm
- Inhibitory zone diameter ([16]; treatment concentration 0.1%): 14 mm
- Inhibitory zone diameter ([16]; treatment concentration 0.3%): 16 mm
- Inhibitory zone diameter ([16]; treatment concentration 1.0%): 18 mm
- MIC [17]: 0.03%
- Inhibitory zone diameter ([18]; treatment concentration 0.01%): 10.5 mm
- Inhibitory zone diameter ([18]; treatment concentration 0.03%): 12 mm
- Inhibitory zone diameter ([18]; treatment concentration 0.1%): 14 mm
- Inhibitory zone diameter ([18]; treatment concentration 0.3%): 16 mm
- Inhibitory zone diameter ([18]; treatment concentration 1.0%): 18 mm
- Inhibitory zone diameter ([19]; treatment concentration 0.03%): 12 mm
- Inhibitory zone diameter ([19]; treatment concentration 0.1%): 14 mm
- Inhibitory zone diameter ([19]; treatment concentration 0.3%): 18 mm
- Inhibitory zone diameter ([19]; treatment concentration 1.0%): 20 mm
- Inhibitory zone diameter ([20]; treatment concentration 0.1%): 10.5 mm
- Inhibitory zone diameter ([20]; treatment concentration 0.3%): 11 mm
- Inhibitory zone diameter ([20]; treatment concentration 1.0%): 12 mm
